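Tested at 5 concentrations; 48 h exposure; 96-well plates; endpoints linearly interpolated, else capped at highest concentration. The concentration for 50% growth inhibition is given as GI50.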 Activity calls are given as the source filed them. Rule as the data show it: active = GI50 up to about 1.1 µM and inactive = higher.
Assays:
Experiment in all cases: NCI anticancer screen, dose series, 48 h
786-0 = test system: 786-0
LOX IMVI = test system: LOX IMVI
SNB-78 = test system: SNB-78
OVCAR-3 = test system: OVCAR-3
ACHN = test system: ACHN
HCC 2998 = test system: HCC 2998
SK-MEL-2 = test system: SK-MEL-2
KM12 = test system: KM12
CAKI-1 = test system: CAKI-1
UACC-257 = test system: UACC-257
NCI-H23 = test system: NCI-H23
MOLT-4 = test system: MOLT-4
OVCAR-4 = test system: OVCAR-4
UACC-62 = test system: UACC-62
NCI-H522 = test system: NCI-H522
MDA-MB-231 = test system: MDA-MB-231
K562 = test system: K562
T47D = test system: T47D
HL-60 = test system: HL-60
MDA-MB-435 = test system: MDA-MB-435

Measured: GI50

COc1cc(/C=C2\CCC(CN(C)C)C2=O)ccc1OC(=O)c1ccccc1 (centres undefined)
inactive: 786-0 3.76 µM | LOX IMVI 3.86 µM | SNB-78 19.2 µM | OVCAR-3 8.91 µM | ACHN 15.3 µM | HCC 2998 16.3 µM | SK-MEL-2 17.9 µM | KM12 2.99 µM | CAKI-1 17.1 µM | UACC-257 13.5 µM | NCI-H23 16.1 µM | MOLT-4 2.28 µM | OVCAR-4 12.4 µM | UACC-62 16.5 µM | NCI-H522 4 µM | MDA-MB-231 5.47 µM | K562 2.32 µM | T47D 3.76 µM | HL-60 1.91 µM | MDA-MB-435 14.3 µM

COC(=O)C1=C(C[S+]([O-])c2ccc([N+](=O)[O-])cc2[N+](=O)[O-])ON(C)C1c1ccccc1 (centres undefined)
inactive: 786-0 67.1 µM | LOX IMVI 14.9 µM | SNB-78 33.9 µM | OVCAR-3 43.2 µM | ACHN 67.6 µM | HCC 2998 > 37.8 µM | SK-MEL-2 37 µM | KM12 37.2 µM | CAKI-1 28 µM | UACC-257 50.6 µM | NCI-H23 25.3 µM | MOLT-4 17.4 µM | OVCAR-4 48.4 µM | UACC-62 24.2 µM | NCI-H522 17.7 µM | K562 12.1 µM | HL-60 7.66 µM

O=C1C(O)=C(CC=C(Cl)Cl)C(=O)c2ccccc21
inactive: 786-0 6.17 µM | LOX IMVI 2.23 µM | SNB-78 21.9 µM | OVCAR-3 13.5 µM | ACHN 12.3 µM | HCC 2998 28 µM | SK-MEL-2 17.7 µM | KM12 6.46 µM | CAKI-1 23.1 µM | UACC-257 15.1 µM | NCI-H23 27.9 µM | MOLT-4 1.46 µM | OVCAR-4 21.7 µM | UACC-62 4.91 µM | NCI-H522 14 µM | MDA-MB-231 15.1 µM | K562 1.82 µM | T47D 38.5 µM | HL-60 2.07 µM | MDA-MB-435 11 µM

Cc1ccc(S(=O)(=O)NC(=O)NCCc2ccccc2)cc1
inactive: 786-0 > 100 µM | LOX IMVI > 100 µM | SNB-78 > 100 µM | OVCAR-3 > 100 µM | ACHN > 100 µM | HCC 2998 > 100 µM | SK-MEL-2 > 100 µM | KM12 > 100 µM | CAKI-1 > 100 µM | UACC-257 25.9 µM | NCI-H23 76.7 µM | MOLT-4 > 100 µM | OVCAR-4 > 100 µM | UACC-62 > 100 µM | NCI-H522 73.8 µM | K562 83.4 µM | HL-60 74.1 µM

COC(=O)c1c/c(=N\NC(=O)CC(=O)Nc2ccccc2Cl)c2ccccc2o1
inactive: 786-0 > 100 µM | LOX IMVI > 100 µM | SNB-78 > 100 µM | OVCAR-3 > 100 µM | ACHN > 100 µM | HCC 2998 65.3 µM | SK-MEL-2 > 100 µM | KM12 > 100 µM | CAKI-1 > 100 µM | UACC-257 > 100 µM | NCI-H23 > 100 µM | MOLT-4 > 100 µM | OVCAR-4 > 100 µM | UACC-62 > 100 µM | NCI-H522 > 100 µM | K562 > 100 µM | HL-60 > 100 µM

COc1cc(-c2nccc3cc(OC)c(OC)cc23)ccc1O
inactive: 786-0 78 µM | LOX IMVI 36.6 µM | SNB-78 > 100 µM | OVCAR-3 49.3 µM | ACHN 44.9 µM | HCC 2998 > 100 µM | SK-MEL-2 > 100 µM | KM12 48.3 µM | CAKI-1 21.3 µM | UACC-257 69.2 µM | NCI-H23 32.4 µM | MOLT-4 29.2 µM | OVCAR-4 68.4 µM | UACC-62 30 µM | NCI-H522 35.8 µM | K562 40.8 µM | HL-60 17.7 µM

Fc1ccccc1C1CC(c2ccc3ccccc3c2)=Nc2ccccc2S1 (centres undefined)
inactive: 786-0 > 100 µM | LOX IMVI > 100 µM | SNB-78 > 100 µM | OVCAR-3 > 100 µM | ACHN > 100 µM | HCC 2998 4.27 µM | SK-MEL-2 > 100 µM | KM12 > 100 µM | CAKI-1 > 100 µM | UACC-257 > 100 µM | NCI-H23 > 100 µM | MOLT-4 > 100 µM | OVCAR-4 > 100 µM | UACC-62 > 100 µM | NCI-H522 > 100 µM | K562 > 10 µM | HL-60 > 100 µM

C#CCNC(=O)N(CC#C)N=O
inactive: 786-0 > 100 µM | LOX IMVI 38.6 µM | SNB-78 > 100 µM | OVCAR-3 > 100 µM | ACHN > 100 µM | HCC 2998 > 100 µM | SK-MEL-2 > 100 µM | KM12 > 100 µM | CAKI-1 > 100 µM | UACC-257 > 100 µM | NCI-H23 > 100 µM | MOLT-4 31 µM | OVCAR-4 > 100 µM | UACC-62 > 100 µM | NCI-H522 19.5 µM | K562 24.8 µM | HL-60 25.3 µM

CCCCCCCCC(=O)N(C)C1C2CN3CCC(O2)C13 (centres undefined)
inactive: 786-0 > 100 µM | LOX IMVI > 100 µM | SNB-78 > 100 µM | OVCAR-3 > 100 µM | ACHN > 100 µM | HCC 2998 > 100 µM | SK-MEL-2 > 100 µM | KM12 > 100 µM | CAKI-1 48.9 µM | UACC-257 > 100 µM | NCI-H23 > 100 µM | MOLT-4 > 100 µM | OVCAR-4 > 100 µM | UACC-62 > 100 µM | NCI-H522 > 100 µM | K562 > 100 µM | HL-60 > 100 µM

From ChEMBL document CHEMBL1201862, “PubChem BioAssay data set” (2004)
